# Experimental data taken from ChEMBL document CHEMBL3885881, “DrugMatrix”.
# Organism: Rattus norvegicus
# Assay: DrugMatrix - Regimen: Daily Repeat
# Format: toxicity, organism-based, Sprague-Dawley
# Set-up: regimen Daily Repeat, gender Male, age 6-8 weeks
# Conditions: in vivo, route none, vehicle 100 % UNTREATED; for BASOPHIL / ERYTHROCYTE COUNT / HEMATOCRIT / HEMOGLOBIN / LEUKOCYTE COUNT / LYMPHOCYTE / MEAN CORPUSCULAR HEMOGLOBIN / MEAN CORPUSCULAR HEMOGLOBIN CONCENTRATION / MONOCYTE / NEUTROPHIL / NUCLEATED RED BLOOD CELLS / PLATELET COUNT / ABSOLUTE BASOPHIL / ABSOLUTE EOSINOPHIL / ABSOLUTE LYMPHOCYTE / ABSOLUTE MONOCYTE / ABSOLUTE SEGMENTED NEUTROPHIL / EOSINOPHIL / MEAN CORPUSCULAR VOLUME: tissue Blood
# [1] = 60 mg/kg, 120 h, dose level M1, time 5 day
# [2] = 60 mg/kg, 120 h, tissue Plasma, dose level M1, time 5 day
# [3] = 60 mg/kg, […], dose level M1, time 14 day
# [4] = 60 mg/kg, […], tissue Plasma, dose level M1, time 14 day
# [5] = 75 mg/kg, 120 h, dose level High, time 5 day
# [6] = 75 mg/kg, 120 h, tissue Plasma, dose level High, time 5 day
# [7] = 75 mg/kg, […], dose level High, time 14 day
# [8] = 75 mg/kg, […], tissue Plasma, dose level High, time 14 day
substance,measurement,setting,value
Diet_Restriction,BASOPHIL,[1],0%
same,ERYTHROCYTE COUNT,[1],5.22 x10E6/uL
same,HEMATOCRIT,[1],32.2%
same,HEMOGLOBIN,[1],11.93 G/DL
same,LEUKOCYTE COUNT,[1],4.3 x10E3/uL
same,LYMPHOCYTE,[1],87.33%
same,MEAN CORPUSCULAR HEMOGLOBIN,[1],22.9 pg
same,MEAN CORPUSCULAR HEMOGLOBIN CONCENTRATION,[1],37.1 G/DL
same,MONOCYTE,[1],0.67%
same,NEUTROPHIL,[1],10.67%
same,NUCLEATED RED BLOOD CELLS,[1],0 /100WBC
same,PLATELET COUNT,[1],765.33 x10E3/uL
same,ALANINE AMINOTRANSFERASE,[2],32.33 u/L
same,ALBUMIN,[2],4.3 G/DL
same,ALKALINE PHOSPHATASE,[2],267.33 u/L
same,ASPARTATE AMINOTRANSFERASE,[2],64.33 u/L
same,BLOOD UREA NITROGEN,[2],6.33 mg/dL
same,CARBON DIOXIDE,[2],31.33 mmol/L
same,CHOLESTEROL,[2],52 mg/dL
same,CREATINE PHOSPHOKINASE,[2],263 u/L
same,CREATININE,[2],0.14 mg/dL
same,GLUCOSE,[2],137.33 mg/dL
same,LACTATE DEHYDROGENASE,[2],96 u/L
same,PHOSPHORUS,[2],10.27 mg/dL
same,POTASSIUM,[2],5.6 MEQ/L
same,TOTAL BILIRUBIN,[2],0.1 mg/dL
same,TOTAL PROTEIN,[2],5.93 G/DL
same,ABSOLUTE BASOPHIL,[3],0 CELLS/uL
same,ABSOLUTE EOSINOPHIL,[3],64 CELLS/uL
same,ABSOLUTE LYMPHOCYTE,[3],14236 CELLS/uL
same,ABSOLUTE MONOCYTE,[3],39.33 CELLS/uL
same,ABSOLUTE SEGMENTED NEUTROPHIL,[3],894 CELLS/uL
same,BASOPHIL,[3],0%
same,EOSINOPHIL,[3],0.33%
same,ERYTHROCYTE COUNT,[3],6.6 x10E6/uL
same,HEMATOCRIT,[3],37.43%
same,LEUKOCYTE COUNT,[3],15.23 x10E3/uL
same,LYMPHOCYTE,[3],92.67%
same,MEAN CORPUSCULAR HEMOGLOBIN,[3],21.37 pg
same,MEAN CORPUSCULAR HEMOGLOBIN CONCENTRATION,[3],37.67 G/DL
same,MEAN CORPUSCULAR VOLUME,[3],56.73 fL
same,MONOCYTE,[3],0.33%
same,NEUTROPHIL,[3],6.67%
same,NUCLEATED RED BLOOD CELLS,[3],0 /100WBC
same,PLATELET COUNT,[3],800.67 x10E3/uL
same,ALANINE AMINOTRANSFERASE,[4],47 u/L
same,ALBUMIN,[4],4.4 G/DL
same,ALKALINE PHOSPHATASE,[4],256 u/L
same,ASPARTATE AMINOTRANSFERASE,[4],114.33 u/L
same,BLOOD UREA NITROGEN,[4],15 mg/dL
same,CARBON DIOXIDE,[4],25 mmol/L
same,CHOLESTEROL,[4],65 mg/dL
same,CREATINE PHOSPHOKINASE,[4],1426.33 u/L
same,CREATININE,[4],0.23 mg/dL
same,GLUCOSE,[4],165.33 mg/dL
same,LACTATE DEHYDROGENASE,[4],131.33 u/L
same,LIPASE,[4],12 u/L
same,PHOSPHORUS,[4],11.63 mg/dL
same,POTASSIUM,[4],5.69 MEQ/L
same,TOTAL BILIRUBIN,[4],0.17 mg/dL
same,TOTAL PROTEIN,[4],6.17 G/DL
same,ABSOLUTE BASOPHIL,[5],0 CELLS/uL
same,ABSOLUTE EOSINOPHIL,[5],35.33 CELLS/uL
same,ABSOLUTE LYMPHOCYTE,[5],3939.33 CELLS/uL
same,ABSOLUTE MONOCYTE,[5],67.67 CELLS/uL
same,ABSOLUTE SEGMENTED NEUTROPHIL,[5],957.67 CELLS/uL
same,BASOPHIL,[5],0%
same,EOSINOPHIL,[5],0.67%
same,ERYTHROCYTE COUNT,[5],5.54 x10E6/uL
same,HEMATOCRIT,[5],33.63%
same,HEMOGLOBIN,[5],12.8 G/DL
same,LEUKOCYTE COUNT,[5],5 x10E3/uL
same,LYMPHOCYTE,[5],79%
same,MEAN CORPUSCULAR HEMOGLOBIN,[5],23.13 pg
same,MEAN CORPUSCULAR HEMOGLOBIN CONCENTRATION,[5],38.07 G/DL
same,NEUTROPHIL,[5],19%
same,NUCLEATED RED BLOOD CELLS,[5],0 /100WBC
same,PLATELET COUNT,[5],1074.67 x10E3/uL
same,ALANINE AMINOTRANSFERASE,[6],49.33 u/L
same,ALBUMIN,[6],4.3 G/DL
same,ALKALINE PHOSPHATASE,[6],317.33 u/L
same,ASPARTATE AMINOTRANSFERASE,[6],72 u/L
same,BLOOD UREA NITROGEN,[6],9.33 mg/dL
same,CARBON DIOXIDE,[6],35 mmol/L
same,CHOLESTEROL,[6],65.67 mg/dL
same,CREATINE PHOSPHOKINASE,[6],288.33 u/L
same,CREATININE,[6],0.15 mg/dL
same,GLUCOSE,[6],136.33 mg/dL
same,LACTATE DEHYDROGENASE,[6],95.67 u/L
same,PHOSPHORUS,[6],11.33 mg/dL
same,POTASSIUM,[6],6.01 MEQ/L
same,SODIUM,[6],146.17 MEQ/L
same,TOTAL BILIRUBIN,[6],0.1 mg/dL
same,TOTAL PROTEIN,[6],6.23 G/DL
same,URIC ACID,[6],1 mg/dL
same,ABSOLUTE BASOPHIL,[7],0 CELLS/uL
same,ABSOLUTE EOSINOPHIL,[7],0 CELLS/uL
same,ABSOLUTE LYMPHOCYTE,[7],13779.33 CELLS/uL
same,ABSOLUTE MONOCYTE,[7],115 CELLS/uL
same,ABSOLUTE SEGMENTED NEUTROPHIL,[7],2472.33 CELLS/uL
same,BASOPHIL,[7],0%
same,EOSINOPHIL,[7],0%
same,ERYTHROCYTE COUNT,[7],6.39 x10E6/uL
same,HEMATOCRIT,[7],35.97%
same,HEMOGLOBIN,[7],13.47 G/DL
same,LEUKOCYTE COUNT,[7],16.37 x10E3/uL
same,LYMPHOCYTE,[7],84.33%
same,MEAN CORPUSCULAR HEMOGLOBIN,[7],21.13 pg
same,MEAN CORPUSCULAR HEMOGLOBIN CONCENTRATION,[7],37.47 G/DL
same,MEAN CORPUSCULAR VOLUME,[7],56.37 fL
same,MONOCYTE,[7],0.67%
same,NEUTROPHIL,[7],15%
same,NUCLEATED RED BLOOD CELLS,[7],0 /100WBC
same,PLATELET COUNT,[7],941 x10E3/uL
same,ALANINE AMINOTRANSFERASE,[8],51 u/L
same,ALKALINE PHOSPHATASE,[8],319.33 u/L
same,ASPARTATE AMINOTRANSFERASE,[8],77.33 u/L
same,BLOOD UREA NITROGEN,[8],14 mg/dL
same,CHLORIDE,[8],99.67 MEQ/L
same,CHOLESTEROL,[8],64.33 mg/dL
same,CREATINE PHOSPHOKINASE,[8],271.33 u/L
same,CREATININE,[8],0.23 mg/dL
same,GLUCOSE,[8],175 mg/dL
same,LACTATE DEHYDROGENASE,[8],113 u/L
same,LIPASE,[8],20.33 u/L
same,PHOSPHORUS,[8],12.13 mg/dL
same,POTASSIUM,[8],5.75 MEQ/L
same,TOTAL BILIRUBIN,[8],0.13 mg/dL
same,TOTAL PROTEIN,[8],6.1 G/DL
same,URIC ACID,[8],1.3 mg/dL
